Consider 2 compounds from paper PMC10644391, “Targeted Reversible Covalent Modification of a Noncatalytic Lysine of the Krev Interaction Trapped 1 Protein Enables Site-Directed Screening for Protein–Protein Interaction Inhibitors” (ACS Pharmacology & Translational Science, 2023).

Structures are written as SMILES. Several values for one entry are separate records, joined by “and”; a condition that tells them apart may be missing. Equal values may be shown once.

The target of series [1] is T1, HEG1-KRIT1 PPI (Homo sapiens, UniProt O00522).
T1 construct: a recombinant FERM domain (residues 417–736) of KRIT1; made in house; host or cells: E. coli
T1 sequence (O00522 417-736): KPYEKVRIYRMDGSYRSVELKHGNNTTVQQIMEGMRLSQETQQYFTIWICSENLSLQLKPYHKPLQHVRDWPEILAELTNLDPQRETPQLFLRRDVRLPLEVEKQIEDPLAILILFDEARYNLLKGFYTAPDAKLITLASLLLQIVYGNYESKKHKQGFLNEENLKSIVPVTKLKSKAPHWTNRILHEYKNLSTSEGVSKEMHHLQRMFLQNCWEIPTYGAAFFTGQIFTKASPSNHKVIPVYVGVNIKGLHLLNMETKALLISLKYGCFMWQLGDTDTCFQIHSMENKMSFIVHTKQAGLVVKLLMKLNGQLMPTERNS
Briefly: HEG1-KRIT1 PPI fluorescence polarization (FP) time-resolved assay. It counts as biochemical. The note with it: for IC50: fluorescence polarization assay after 4 h of incubation; for IC50 / HEG1-KRIT1 PPI Assay kon / koff / Ki: means ± SD, n = 3; for HEG1-KRIT1 PPI Assay kon / koff: global fit across six or more inhibitor concentrations; for Ki: global fit, unit in Figure 2E, read-out: HEG1-KRIT1 PPI Assay Ki (koff/kon). As for the experimental part:
To evaluate the binding kinetics of HNA inhibitors, a fluorescence polarization (FP) time-resolved assay that uses a recombinant FERM domain (residues 417–736) of KRIT1 and a fluorescence-tagged HEG1 cytoplasmic tail (Cy5-HEG1 7-mer peptide) was developed (Supporting Information). Using HNA as a test compound, the FP data, expressed as millipolarization (mP) units, were obtained every 10 min over the course of 4–7 h. […] Thus, for practical purposes, a 4-h incubation time was established as the standard assay time for non-kinetic IC50 evaluations.
Fluorescence Polarization Assay and Optimization
The KRIT1 FERM domain (residues 417-736) was cloned into plasmid and recombinantly expressed in E. coli as previously described,1 while the Cy5-HEG1 7- mer peptide bearing the Cy5 dye as fluorescent probe was prepared by and purchased from GenScript (New Jersey, US). HEPES- buffered saline (HBS) buffer was supplemented (0.01%) with detergent Triton X -100 to minimize protein adsorption to the microplate. The assay was setup in a 96-well plate plated with 80 nM KRIT1, 4 nM Cy5- HEG1 probe, and either non-tagged HEG1 peptide or HNA as inhibitor (in 5% DMSO). To account for background fluorescence that could interfere with the assay, background wells with only test compound and Cy5 -HEG1 probe (no KRIT1) were also plated. The FP data, expressed as millipolarization (mP) units, were obtained […]
course of 4-7 hours (for kinetic characterization) using a Tecan Spark® Multimode Microplate Reader. The background mP (no KRIT1) was subtracted from mP to account for background fluorescence. All assays were done in triplicates.
Several FP assay conditions were optimized. First, the HEG1 probe engagement of KRIT1 was examined and its interaction was determined to be rapid equilibrium, thus any observed time dependance in response when an inhibitor displaces the probe is the result of inhibitor exchange kinetics and not that of the probe. Next, the affinity of KRIT1 for the probe (Kd) was examined by following the change in polarization signal as a function of a matrix of five probe concentrations and four KRIT1 concentrations (Figure S1B ). A global fit of equation 3 to polarization responses of the inhibitor vs KRIT1 concentration […]
even after 7 hours of incubation. For practical purposes, we have chosen 4 hours as our standard incubation time since it appeared that most of the inhibition has been reached at this time point. The kinetic characterization of HNA as a HEG1- KRIT1 inhibitor will be discussed in greater detail in the kinetic section […]
values to those obtained from the flow cytometry assay. Finally, to assess the robustness of the FP assay, […]
a robust assay) representing an excellent assay with clear differences between positive and negative controls.2 Evaluation of HEG1-KRIT1 inhibitors prior to the optimization of the FP assay were done using flow cytometry, while subsequent compounds were evaluated using the FP assay. All subsequent assay plates included HNA as comparison and control.
Figure S1. Optimization of fluorescence polarization (FP) assay.
HEG1-KRIT1 inhibition. (B) Optimization of KRIT1 protein and Cy5 -HEG1 probe concentrations. Dose-response curve of HNA obtained via fluorescence polarization (C) and flow cytometry (D) assays show […]
All assays were tested in technical duplicates or triplicates in at least 2 different

A short description of series [2]: pKa by potentiometric titration (Sirius T3). It counts as physicochemical. The note with it: potentiometric titrations, means ± SD of three titrations.
Series [3] in a line: HEK293 cytotoxicity, resazurin cell viability assay. The series is classed as cell-based. The note with it: human, HEK293 cells, means ± SD, n = 3. The protocol:
Maintenance of HEK293 Cells. HEK293 cell lines (American Type Culture Collection (ATCC)) were cultured in Dulbecco's Modified Eagle Medium (DMEM, Invitrogen) supplemented with 10% heat-inactivated fetal bovine serum (FBS, Gibco) and penicillin-streptomycin (1%). Cells were kept at 37 °C and 5% CO2, and were passaged every 72 hours.
Resazurin Cell Viability Assay. The cytotoxicity in HEK293 cells were determined using a resazurin cell viability assay. Test compounds in DMSO were diluted to 100x desired final assay concentration (maximum concentration of 100 µM) in eight-point dose response. 1 µL of test compounds were plated in a 96-well clear bottom tissue culture microplate. 49 µL of cell culture media was added to each well. Cells were diluted to 4 x 10^5 cells/mL, and 50 µL of this cell suspension was seeded to each well for a total of 2 x 10^4 cells/well. The assay plate was kept at 37 °C and 5% CO 2 for either 4 or 48 hours. At the end of the incubation time, 20 µL of 0.5 mM resazurin sodium salt (Alfa Aesar) solution in PBS was added to each well. The assay plates were incubated further at 37 °C for 2 hours. Fluorescence was measured at 531 nm and 595 nm excitation and emission wavelengths, respectively, using a 2104 EnVision® multilabel plate reader. CC50 values were obtained using sigmoidal curved generated with Prism GraphPad (San Diego, CA). SD values are reported as the standard deviation of the CC50 values of 3 biological replicates. All

The test system of series [4] is HEG1-KRIT1 PPI. The following applies: previously reported data; read-out: HEG1-KRIT1 IC50, flow cytometry assay; cited from earlier work.
Series [5] relates to KLF2. More on the design: method as in PMID 33977234. The following applies: HUVECs, 24 h of incubation; cited from earlier work.
Series [6] deals with KLF4. The arrangement: method as in PMID 33977234. The note with it: HUVECs, 24 h of incubation; cited from earlier work.
The test system of series [7] is KLF2. Briefly: KLF2 gene expression in HUVECs (RT-qPCR). The series is classed as cell-based, Human. The following applies: HUVEC, 4-h incubation, relative to inactive control (2-hydroxy-1-naphthoic acid), 10-50 µM. The protocol: (§1) Finally, to confirm target engagement in cell-based conditions, selected HNA derivatives (i.e., 2, 3, and 5) were tested in a functional assay that specifically looks at the downstream effects of inhibiting the interaction between HEG1 and KRIT1, using qPCR. […] Here, the ability of compound 2 and HNA derivatives 3 and 5 to upregulate the same transcription factors in HUVEC after 4 h was measured.
(§2) PCR experiments in endothelial cells
(§3) Cell Culture. Human umbilical vein endothelial cells (HUVECs, Lonza) from passages 5 to 7 were grown on fibronectin‐coated 6-well plates (Corning) in complete EGM‐2 media (Lonza). HNA compounds 2, 3 and 5 were used from stocks of 10 mM in DMSO, which were placed on a rotating block at room temperature for 30 min before being diluted for use in cell culture. Compounds were used at the concentrations indicated (10-50µM) in HUVEC medium and added to cell culture wells for 4 hours. Control cells were treated with the same concentration of either DMSO (vehicle) or the non-active compound V for the same duration. Cells were maintained in a humidified incubator at 37°C and 5% CO2.
(§4) RT-qPCR. HUVECs (Lonza) using TRIzol reagent (Thermo Fisher Scientific) and the Quick-RNA MiniPrep Kit (Zymo Research) according to the manufacturer’s instructions. cDNA was transcribed from a total of 1 µg RNA per sample using qScript™ cDNA SuperMix (QuantaBio) according to the manufacturer’s protocol. KAPA SYBR FAST qPCR master mix (Roche) was used on a CFX Connect Real-Time PCR Detection System (BioRad) to determine the relative levels of human gene trascripts. The following primer sets were used: KLF2 (forward) AGACCACGATCCTCCTTGA and (reverse) […]
(§5) […]; KLF4, (forward) […] and (reverse)
(§6) ; and GAPDH (forward) […] and
(§7) (reverse) […] used as internal control. The 2−ΔΔCT method was used to analyze relative changes between vehicle control and test compounds for each data set.

Series [8] has as its system KLF4. Nature of the series: KLF4 gene expression in HUVECs (RT-qPCR). It counts as cell-based, Human. The following applies: HUVEC, 4-h incubation, relative to inactive control (2-hydroxy-1-naphthoic acid), 10-50 µM. As for the experimental part:
as §1, §2, §3, §4, §5, §6, §7

On to `O=Cc1c(O)ccc2ccccc12` [Compound 1, 2-hydroxy-1-naphthaldehyde], for which the “difference in affinity, KRIT1 (FP assay) vs N-α-acetyl lysine” value in series [1] (Ki for KRIT1 vs Kd for N-α-acetyl lysine) is recorded as > 70,000 fold. In series [1], the 50% inhibitory concentration (IC50) turned out to be 8.14 ± 0.82 µM, the “HEG1-KRIT1 PPI Assay kon” value came to 14.4 ± 0.583 M⁻¹ s⁻¹, the koff is 3.31e-05 s⁻¹ and the Ki stood at 2.29 ± 0.44 µM. The “inhibition of HEG1-KRIT1 PPI upon co-incubation with free lysine” value in series [1] (free lysine 50 μM in the assay buffer) is recorded as “did not meaningfully change”. Besides, the “HEG1-KRIT1 PPI Assay kon” value in series [1] (listed as HNA) is 14.4 M⁻¹ s⁻¹. The same compound came in with a pKa in series [2] of 7.34 ± 0.02. Further, the cytotoxic concentration (CC50) at 48 h in series [3] is approximately 100 µM. Moreover, the IC50 in series [4] was 3.09 µM. The KLF2 expression entry in series [5] is recorded as “upregulation”. In series [6], the KLF4 expression result is “upregulation”.
For `COc1ccc2c(C=O)c(O)ccc2c1` [Compound 2, 2-hydroxy-6-methoxy-1-naphthaldehyde], in series [1], half-maximal inhibition (IC50) was put at 3.96 ± 0.84 µM; the “HEG1-KRIT1 PPI Assay kon” value was 14 M⁻¹ s⁻¹ and 14 ± 0.83 M⁻¹ s⁻¹; the koff was 1.54e-05 s⁻¹; the Ki was found to be 1.1 ± 0.32 µM. In series [2], this compound gave a pKa of 7.42 ± 0.03. In addition, in series [3], the cytotoxic concentration (CC50) at 48 h was more than 100 µM. The “KLF2 mRNA expression” value in series [7] was “increased KLF2 and KLF4 expression without reaching statistical significance”. Also, in series [8], the “KLF4 mRNA expression” value was “increased KLF2 and KLF4 expression without reaching statistical significance”. Also, the KLF2 expression entry in series [5] is recorded as “upregulation”. Also, the KLF4 expression result in series [6] is “upregulation”.
